Tests used:
[1] = system: ACCase of cell line 2167-9/2160-154 S-1; experiment: Herbicide inhibition of ACCase, line S-1; type: biochemical, maize; settings: cell line S-1
Description: (§1) Maize chloroplasts, isolated as described above, were suspended in buffer C (0.1 M Tricine-KOH, pH 8.0; 0.3 M glycerol, and 1 mM DTT) and homogenized in a glass tissue homogenizer. The disrupted chloroplast fraction was centrifuged at 16,000 g for 15 minutes. The supernatant was desalted on a Sephadex G-25 column (1.5×5 cm equilibrated with 0.1 M Tricine-KOH, pH 8.0; and 0.3 M glycerol) and assayed directly. ACCase activity (B. J. Nikolau et al., Arch. Biochem. Biophys., 211, 605-612 (1981)) was assayed at 30° C. in a 0.2 ml volume which contained 1 mM ATP, 3 mM acetyl coenzyme A, 2.5 mM MgCl2, 50 mM KCl, 0.5 mM DTT, and 15 mM [^14C]NaHCO3 (0.17 mCi/mmol). Reactions were initiated by addition of acetyl coenzyme A and stopped by addition of 25 μl of 12 N HCl. Product formation was determined by the radioactivity found in an acid stable fraction by liquid scintillation spectrometry. Enzyme activity was linear for 15 minutes.
(§2) Acetyl Coenzyme A Carboxylase (ACCase) was extracted from cell lines S-1, H-1 and H-2 and assayed as described in detail for maize cell line S-2, above.

[2] = system: fatty acid synthesis in corn seedling chloroplasts; experiment: [14C]acetate and [14C]pyruvate incorporation into fatty acids in isolated chloroplasts; type: biochemical, Corn (Z. mays L.); settings: 10 minute assay time, mean of two experiments ± standard error
Description: Corn (Z. mays L., ‘B37×Oh43’) seeds were germinated in darkness for 96 hours in vermiculite in an incubation chamber maintained at 30° C., 80% RH. Seedlings were then transferred to a growth chamber with a 16 hour light (25° C.) and an 8 hour dark (20° C.) cycle, 90% relative humidity (RH). After greening 48 hours, seedlings were returned to the dark incubation chamber for 12 hours to deplete chloroplast starch reserves. Seedlings were harvested 6 days after planting. Pea (P. sativum L., ‘PI 9901-C’) seedlings were grown in vermiculite in a growth chamber with a 16 hour light (21° C.) and 8 hour dark (16° C.) cycle, 80% RH. Peas were harvested 10 to 13 days after planting. Black Mexican Sweet (BMS) corn suspension cultures were maintained in a supplemented Murashige-Skoog (MS) medium (C. E. Green, Hort. Sci., 12, 7-10 (1977)), and subcultured weekly by 20-fold dilution of the suspension culture into fresh medium.
Chloroplasts from corn and pea seedlings were isolated at 4° C. (K. Cline et al., J. Biol. Chem., 260, 3691-3696 (1985)). Seedlings (50 g of shoots) were homogenized in 200 ml buffer A (50 mM HEPES-NaOH pH 7.5, 330 mM sorbitol, 0.1% w/v BSA, 1 mM MgCl2, 1 mM MnCl2, 2 mM EDTA, 5 mM isoascorbate, 1.3 mM glutathione) in an omnimixer (five, 3-second bursts at full speed). The homogenate was filtered through six layers of cheesecloth and two layers of miracloth, and then centrifuged at 3000 g for 3 minutes with hand-braking. The pellet was gently resuspended in buffer A and layered onto a preformed linear Percoll gradient (50 mM HEPES-NaOH pH 7.5, 330 mM sorbitol, 1.9 mM isoascorbate, 1.08 mM glutathione, 0.1% w/v BSA, 50% Percoll) which was centrifuged at 3000 g for 20 minutes in a Sorvall HB-4 rotor. The lower band in the gradient, containing intact chloroplasts, was washed twice by gently resuspending it in 20 ml of buffer B (50 mM HEPES-NaOH, pH 7.5, and 330 mM sorbitol) followed by repelleting (3000 g, 5 minutes). The final pellet, consisting of intact chloroplasts, was resuspended in 2 to 3 ml of buffer B and stored on ice in the dark until use.
[^14C]acetate and [^14C]pyruvate were used as precursors to measure fatty acid biosynthesis in isolated chloroplasts (B. Liedvogel et al., Planta, 169, 481-489 (1986)). [^14C]acetate incorporation was assayed in a 0.5 ml-volume containing: 50 mM HEPES-NaOH (pH 7.5), 330 mM sorbitol, 5 mM KH2PO4, 10 mM NaHCO3, 1 mM MgCl2, 1 mM ATP, 0.1 mM CoA, 0.15 mM [^14C]acetate (3.33 mCi/mmol), and chloroplasts (20 to 50 μg chlorophyll). [^14C]pyruvate incorporation into fatty acids was assayed in the same medium except that it included 2 mM TPP, 1 mM NAD^+, 0.15 mM [^14C]-pyruvate (1.33 mCi/mmol), but no acetate. […] Aliquots (50 μl) were counted for radioactivity by liquid scintillation spectrometry.

[3] = system: ACCase of cell line 2167-9/2160-154 H-1; experiment: Herbicide inhibition of ACCase, line H-1; type: biochemical, maize; settings: cell line H-1
Description: as §1, §2

| Compound | Fold increase in herbicide concentration that inhibits ACCase activity by 50% vs unselected parent cell line [1] [fold] | Fold increase in herbicide concentration that inhibits ACCase activity by 50% vs unselected parent cell line ([1]; listed as haloxyfop) | % Inhibition of [14C]acetate incorporation into fatty acids ([2]; Haloxyfop 1 μM) [%] | % Inhibition of [14C]pyruvate incorporation into fatty acids ([2]; Haloxyfop 1 μM) [%] | Fold increase in herbicide concentration that inhibits ACCase activity by 50% vs unselected parent cell line [3] [fold] | Fold increase in herbicide concentration that inhibits ACCase activity by 50% vs unselected parent cell line ([3]; listed as haloxyfop) | Fold increase in herbicide concentration that inhibits ACCase activity by 50% vs unselected parent cell line ([1]; listed as sethoxydim) | % Inhibition of [14C]acetate incorporation into fatty acids ([2]; Sethoxydim 10 μM) [%] | % Inhibition of [14C]pyruvate incorporation into fatty acids ([2]; Sethoxydim 10 μM) [%] |
| --- | --- | --- | --- | --- | --- | --- | --- | --- | --- |
| CC(Oc1ccc(Oc2ncc(C(F)(F)F)cc2Cl)cc1)C(=O)O (centres unmarked) [Haloxyfop, 2-[4-[[3-chloro-5-(trifluoromethyl)-2-pyridinyl]oxy]phenoxy]-propanoic acid] | 3 | more tolerant | 89 | 99 | 7 | more tolerant | – | – | – |
| CCCC(=NOCC)C1=C(O)CC(CC(C)SCC)CC1=O (centres unmarked) [Sethoxydim, 2-[1-(ethoxyimino)-butyl]-5-[2-(ethylthio)propyl]-3-hydroxy-2-cyclohexen-1-one] | 4 | – | – | – | 0 | – | more tolerant | 90 | 98 |

From patent publication US6414222B1, “Gene combinations for herbicide tolerance in corn” (Regents of the University of Minnesota, priority 1993, dated 2002)
